# Source: ChEMBL document CHEMBL5465560, “Selectivity Literature for EUbOPEN Chemogenomic Library” (2024)
# Assays:
# [1] = molecular target: T1, Myosin-IIIb (Homo sapiens) (UniProt Q8WXR4); test: Selectivity interaction (KinomeScan (DiscoverX)) EUB0000607a MYO3B; conditions: at 10 µM
# T1 sequence (whole entry): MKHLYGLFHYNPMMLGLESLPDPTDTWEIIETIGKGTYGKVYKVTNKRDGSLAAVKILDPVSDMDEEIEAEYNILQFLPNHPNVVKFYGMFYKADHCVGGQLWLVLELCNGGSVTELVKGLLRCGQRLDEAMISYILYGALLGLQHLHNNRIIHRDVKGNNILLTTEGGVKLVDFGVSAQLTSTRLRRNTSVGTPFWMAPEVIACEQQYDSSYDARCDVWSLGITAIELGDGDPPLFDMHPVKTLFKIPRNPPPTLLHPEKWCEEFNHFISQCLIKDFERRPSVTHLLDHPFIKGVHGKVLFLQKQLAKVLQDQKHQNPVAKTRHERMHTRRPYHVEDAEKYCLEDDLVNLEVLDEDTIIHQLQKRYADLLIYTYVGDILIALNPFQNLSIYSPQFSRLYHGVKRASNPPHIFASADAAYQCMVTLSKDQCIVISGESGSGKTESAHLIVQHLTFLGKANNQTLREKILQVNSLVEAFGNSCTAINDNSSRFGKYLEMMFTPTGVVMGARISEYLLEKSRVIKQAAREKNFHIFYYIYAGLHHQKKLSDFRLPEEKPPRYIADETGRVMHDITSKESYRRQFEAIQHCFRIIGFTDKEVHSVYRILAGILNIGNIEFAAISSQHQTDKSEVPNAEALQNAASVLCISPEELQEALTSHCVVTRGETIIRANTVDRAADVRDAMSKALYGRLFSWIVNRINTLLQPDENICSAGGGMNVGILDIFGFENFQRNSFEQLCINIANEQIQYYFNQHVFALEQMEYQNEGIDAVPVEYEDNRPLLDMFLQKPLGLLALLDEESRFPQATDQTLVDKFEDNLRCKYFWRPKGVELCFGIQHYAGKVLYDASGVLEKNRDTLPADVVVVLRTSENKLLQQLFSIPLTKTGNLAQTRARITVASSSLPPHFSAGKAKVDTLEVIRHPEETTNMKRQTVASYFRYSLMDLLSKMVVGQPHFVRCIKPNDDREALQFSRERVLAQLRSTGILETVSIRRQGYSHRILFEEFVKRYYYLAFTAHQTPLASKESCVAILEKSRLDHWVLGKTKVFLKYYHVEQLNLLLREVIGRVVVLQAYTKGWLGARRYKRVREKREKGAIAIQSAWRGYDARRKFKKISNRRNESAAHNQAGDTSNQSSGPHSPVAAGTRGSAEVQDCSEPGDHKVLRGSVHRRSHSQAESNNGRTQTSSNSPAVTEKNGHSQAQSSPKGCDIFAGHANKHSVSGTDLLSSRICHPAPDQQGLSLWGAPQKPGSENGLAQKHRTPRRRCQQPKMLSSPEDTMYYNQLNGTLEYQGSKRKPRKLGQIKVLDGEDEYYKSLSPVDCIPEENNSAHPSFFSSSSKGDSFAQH
# [2] = molecular target: Serine/threonine-protein kinase pim-3 (Homo sapiens) (UniProt Q86V86); test: Selectivity interaction (KinomeScan (DiscoverX)) EUB0000607a PIM3; conditions: at 10 µM
# [3] = molecular target: Tyrosine-protein kinase JAK2 (Homo sapiens, UniProt O60674); test: Selectivity interaction (KinomeScan (DiscoverX)) EUB0000607a JAK2; conditions: at 10 µM
# [4] = test system: Epidermal growth factor receptor (Homo sapiens), P00533 [UNDEFINED MUTATION]; test: Selectivity interaction (KinomeScan (DiscoverX)) EUB0000655a EGFR; conditions: at 10 µM
# [5] = test system: Tyrosine-protein kinase ABL1 (Homo sapiens), P00519 [F317L]; test: (§1) Selectivity interaction (KinomeScan (DiscoverX)) EUB0000045b ABL1
# [6] = test system: Tyrosine-protein kinase ABL1 (Homo sapiens), P00519 [Q252H]; test: as §1
# [7] = molecular target: Tyrosine-protein kinase ABL1 (Homo sapiens, UniProt P00519); test: as §1
# [8] = test system: Tyrosine-protein kinase ABL1 (Homo sapiens), P00519 [E255K]; test: as §1
# [9] = test system: Tyrosine-protein kinase ABL1 (Homo sapiens), P00519 [Y253F]; test: as §1
# [10] = test system: Tyrosine-protein kinase ABL1 (Homo sapiens), P00519 [T315I]; test: as §1
# [11] = test system: Tyrosine-protein kinase ABL1 (Homo sapiens), P00519 [M351T]; test: as §1
# [12] = test system: Tyrosine-protein kinase ABL1 (Homo sapiens), P00519 [F317I]; test: as §1
# [13] = test system: Tyrosine-protein kinase ABL1 (Homo sapiens), P00519 [H396P]; test: as §1
# [14] = test system: Epidermal growth factor receptor (Homo sapiens), P00533 [UNDEFINED MUTATION]; test: Selectivity interaction (KinomeScan (DiscoverX)) EUB0000045b EGFR; conditions: at 10 µM
# [15] = molecular target: Serine/threonine-protein kinase Chk2 (Homo sapiens) (UniProt O96017); test: Selectivity interaction (KinomeScan (DiscoverX)) EUB0000229b CHEK2; conditions: at 10 µM
# [16] = molecular target: T2, Serine/threonine-protein kinase Sgk3 (Homo sapiens) (UniProt Q96BR1); test: Selectivity interaction (KinomeScan (DiscoverX)) EUB0000092b SGK3; conditions: at 10 µM
# T2 sequence (whole entry): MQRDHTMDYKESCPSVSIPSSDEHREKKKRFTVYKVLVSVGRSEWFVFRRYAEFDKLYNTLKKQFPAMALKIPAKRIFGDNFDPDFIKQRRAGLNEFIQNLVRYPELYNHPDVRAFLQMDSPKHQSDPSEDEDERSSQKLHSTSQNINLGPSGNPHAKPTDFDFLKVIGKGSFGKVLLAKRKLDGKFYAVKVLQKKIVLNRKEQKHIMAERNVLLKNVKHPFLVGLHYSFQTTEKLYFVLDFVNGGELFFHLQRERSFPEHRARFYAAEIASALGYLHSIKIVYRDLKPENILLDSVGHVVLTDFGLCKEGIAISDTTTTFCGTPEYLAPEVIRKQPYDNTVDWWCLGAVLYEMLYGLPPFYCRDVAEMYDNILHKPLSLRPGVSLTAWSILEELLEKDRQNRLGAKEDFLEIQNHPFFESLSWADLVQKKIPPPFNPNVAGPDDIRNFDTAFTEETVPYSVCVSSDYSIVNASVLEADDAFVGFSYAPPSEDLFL
# [17] = molecular target: Serine/threonine-protein kinase RIO2 (Homo sapiens) (UniProt Q9BVS4); test: Selectivity interaction (KinomeScan (DiscoverX)) EUB0000092b RIOK2; conditions: at 10 µM
# [18] = molecular target: Myosin-IIIa (Homo sapiens) (UniProt Q8NEV4); test: Selectivity interaction (KinomeScan (DiscoverX)) EUB0000618a MYO3A; conditions: at 10 µM
# Sequence of Myosin-IIIa (Homo sapiens) (Q8NEV4 whole entry): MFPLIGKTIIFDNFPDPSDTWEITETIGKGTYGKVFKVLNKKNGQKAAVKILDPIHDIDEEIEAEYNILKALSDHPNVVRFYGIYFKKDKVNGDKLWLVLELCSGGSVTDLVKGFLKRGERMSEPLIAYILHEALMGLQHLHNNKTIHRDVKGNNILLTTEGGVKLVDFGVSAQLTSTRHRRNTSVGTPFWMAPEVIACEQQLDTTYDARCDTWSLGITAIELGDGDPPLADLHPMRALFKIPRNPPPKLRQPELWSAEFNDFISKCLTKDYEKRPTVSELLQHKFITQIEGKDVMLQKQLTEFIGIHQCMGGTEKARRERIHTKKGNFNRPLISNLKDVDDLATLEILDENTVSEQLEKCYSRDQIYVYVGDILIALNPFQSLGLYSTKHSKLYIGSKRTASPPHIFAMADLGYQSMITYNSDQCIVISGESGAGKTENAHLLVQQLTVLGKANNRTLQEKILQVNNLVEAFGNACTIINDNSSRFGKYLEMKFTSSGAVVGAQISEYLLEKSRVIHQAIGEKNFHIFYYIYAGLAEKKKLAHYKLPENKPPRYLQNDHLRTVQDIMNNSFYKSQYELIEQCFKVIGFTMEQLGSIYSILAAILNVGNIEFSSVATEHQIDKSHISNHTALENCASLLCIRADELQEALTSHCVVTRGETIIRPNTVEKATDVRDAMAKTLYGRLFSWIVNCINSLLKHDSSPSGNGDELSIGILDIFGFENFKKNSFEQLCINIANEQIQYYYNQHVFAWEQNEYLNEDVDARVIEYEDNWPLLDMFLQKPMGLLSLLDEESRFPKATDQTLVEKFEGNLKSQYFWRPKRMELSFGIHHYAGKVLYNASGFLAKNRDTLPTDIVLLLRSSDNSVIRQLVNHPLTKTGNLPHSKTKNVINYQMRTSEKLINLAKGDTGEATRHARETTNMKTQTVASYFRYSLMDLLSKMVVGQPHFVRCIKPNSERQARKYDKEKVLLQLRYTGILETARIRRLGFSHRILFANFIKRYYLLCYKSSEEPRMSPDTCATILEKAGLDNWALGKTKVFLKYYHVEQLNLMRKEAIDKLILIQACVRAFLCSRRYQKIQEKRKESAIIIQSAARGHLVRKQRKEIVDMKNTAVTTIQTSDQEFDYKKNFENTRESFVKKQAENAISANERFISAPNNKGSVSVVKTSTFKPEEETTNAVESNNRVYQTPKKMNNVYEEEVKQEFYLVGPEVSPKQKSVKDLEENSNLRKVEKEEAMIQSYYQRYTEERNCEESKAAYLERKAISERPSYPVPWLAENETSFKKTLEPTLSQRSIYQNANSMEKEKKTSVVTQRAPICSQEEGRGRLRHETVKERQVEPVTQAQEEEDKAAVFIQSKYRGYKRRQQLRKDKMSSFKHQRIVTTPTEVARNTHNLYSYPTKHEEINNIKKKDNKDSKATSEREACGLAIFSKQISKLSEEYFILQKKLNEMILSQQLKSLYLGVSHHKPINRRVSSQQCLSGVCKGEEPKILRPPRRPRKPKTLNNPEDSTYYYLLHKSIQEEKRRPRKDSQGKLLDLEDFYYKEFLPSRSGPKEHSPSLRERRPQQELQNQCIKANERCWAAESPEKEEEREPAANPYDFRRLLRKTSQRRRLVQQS
# Sequence of Epidermal growth factor receptor (Homo sapiens), P00533 [UNDEFINED MUTATION] (P00533 whole entry, looked up, stated change not applied): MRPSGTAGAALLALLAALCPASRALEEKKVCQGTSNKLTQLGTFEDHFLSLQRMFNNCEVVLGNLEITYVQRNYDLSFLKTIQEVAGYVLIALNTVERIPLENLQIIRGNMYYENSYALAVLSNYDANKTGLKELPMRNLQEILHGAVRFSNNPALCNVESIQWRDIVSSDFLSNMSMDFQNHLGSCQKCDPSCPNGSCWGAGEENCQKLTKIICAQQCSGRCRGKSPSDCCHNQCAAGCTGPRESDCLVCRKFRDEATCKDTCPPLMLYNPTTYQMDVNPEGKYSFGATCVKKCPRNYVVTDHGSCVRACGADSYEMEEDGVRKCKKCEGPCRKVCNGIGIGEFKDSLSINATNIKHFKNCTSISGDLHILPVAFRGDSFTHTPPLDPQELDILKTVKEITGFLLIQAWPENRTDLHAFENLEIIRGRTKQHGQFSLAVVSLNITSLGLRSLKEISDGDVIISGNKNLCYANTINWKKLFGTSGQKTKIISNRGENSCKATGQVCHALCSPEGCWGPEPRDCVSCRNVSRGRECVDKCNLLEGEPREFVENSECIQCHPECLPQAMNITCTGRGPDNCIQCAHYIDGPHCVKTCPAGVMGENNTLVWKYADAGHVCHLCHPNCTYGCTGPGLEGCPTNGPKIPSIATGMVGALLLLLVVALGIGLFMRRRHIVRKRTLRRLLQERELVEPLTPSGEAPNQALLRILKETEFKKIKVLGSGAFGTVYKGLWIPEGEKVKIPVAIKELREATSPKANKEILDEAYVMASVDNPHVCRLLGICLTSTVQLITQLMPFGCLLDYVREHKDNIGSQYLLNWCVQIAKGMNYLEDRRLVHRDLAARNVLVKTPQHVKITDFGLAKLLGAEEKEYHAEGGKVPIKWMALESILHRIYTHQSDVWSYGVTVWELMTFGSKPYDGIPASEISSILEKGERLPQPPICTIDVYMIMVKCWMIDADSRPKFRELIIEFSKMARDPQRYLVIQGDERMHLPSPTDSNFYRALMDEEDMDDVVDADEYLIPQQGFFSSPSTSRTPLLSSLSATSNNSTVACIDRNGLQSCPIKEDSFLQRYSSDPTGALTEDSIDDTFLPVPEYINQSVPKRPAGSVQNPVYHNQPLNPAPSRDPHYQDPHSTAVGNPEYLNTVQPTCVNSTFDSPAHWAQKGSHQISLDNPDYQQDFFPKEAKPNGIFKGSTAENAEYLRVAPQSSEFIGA
# Sequence of Serine/threonine-protein kinase Chk2 (Homo sapiens) (O96017 whole entry): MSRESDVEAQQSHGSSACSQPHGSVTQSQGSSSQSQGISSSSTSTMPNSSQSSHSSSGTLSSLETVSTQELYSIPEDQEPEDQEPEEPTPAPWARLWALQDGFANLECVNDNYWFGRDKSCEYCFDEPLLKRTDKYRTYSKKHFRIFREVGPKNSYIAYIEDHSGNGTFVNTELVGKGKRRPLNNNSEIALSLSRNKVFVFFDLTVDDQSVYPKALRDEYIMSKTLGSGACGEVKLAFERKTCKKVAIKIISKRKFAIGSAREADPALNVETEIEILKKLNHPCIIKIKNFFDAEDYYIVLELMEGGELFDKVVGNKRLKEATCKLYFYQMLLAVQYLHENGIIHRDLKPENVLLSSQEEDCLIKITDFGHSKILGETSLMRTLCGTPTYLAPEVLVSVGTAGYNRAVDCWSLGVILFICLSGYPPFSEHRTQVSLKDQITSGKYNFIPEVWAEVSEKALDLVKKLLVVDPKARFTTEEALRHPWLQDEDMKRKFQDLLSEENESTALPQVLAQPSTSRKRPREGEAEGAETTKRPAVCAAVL
# Sequence of Tyrosine-protein kinase JAK2 (O60674 whole entry): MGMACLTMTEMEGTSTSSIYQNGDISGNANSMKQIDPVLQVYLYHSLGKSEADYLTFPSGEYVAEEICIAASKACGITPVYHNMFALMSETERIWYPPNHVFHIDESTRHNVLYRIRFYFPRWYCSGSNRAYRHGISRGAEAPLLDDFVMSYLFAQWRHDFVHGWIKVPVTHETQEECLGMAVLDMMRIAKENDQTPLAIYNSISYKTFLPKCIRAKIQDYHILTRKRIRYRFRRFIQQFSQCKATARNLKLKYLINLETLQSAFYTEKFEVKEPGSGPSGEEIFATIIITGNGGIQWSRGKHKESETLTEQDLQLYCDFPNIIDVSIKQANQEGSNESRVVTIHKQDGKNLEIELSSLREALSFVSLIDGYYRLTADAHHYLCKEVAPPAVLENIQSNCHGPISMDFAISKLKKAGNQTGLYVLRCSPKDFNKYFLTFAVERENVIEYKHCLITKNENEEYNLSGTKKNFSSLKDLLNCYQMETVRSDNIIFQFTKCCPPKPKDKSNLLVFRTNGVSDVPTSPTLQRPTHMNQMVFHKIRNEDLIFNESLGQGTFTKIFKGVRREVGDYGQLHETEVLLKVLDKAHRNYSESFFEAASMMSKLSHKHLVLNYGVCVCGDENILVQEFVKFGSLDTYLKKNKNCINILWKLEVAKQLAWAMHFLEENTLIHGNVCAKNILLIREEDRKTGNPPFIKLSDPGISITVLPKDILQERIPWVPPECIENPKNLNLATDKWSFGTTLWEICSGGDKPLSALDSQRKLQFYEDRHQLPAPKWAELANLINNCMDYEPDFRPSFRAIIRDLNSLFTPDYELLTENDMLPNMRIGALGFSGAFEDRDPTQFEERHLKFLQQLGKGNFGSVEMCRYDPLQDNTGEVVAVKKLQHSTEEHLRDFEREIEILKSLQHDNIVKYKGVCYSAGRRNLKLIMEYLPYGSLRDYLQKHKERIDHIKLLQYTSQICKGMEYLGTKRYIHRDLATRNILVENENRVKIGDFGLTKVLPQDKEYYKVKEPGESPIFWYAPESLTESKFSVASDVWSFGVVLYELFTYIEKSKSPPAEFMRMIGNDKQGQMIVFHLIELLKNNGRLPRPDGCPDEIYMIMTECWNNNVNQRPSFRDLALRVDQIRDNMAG
smiles,measurement,setting,value
CNC(=O)Nc1ccc(-c2nc(N3CC4CCC(C3)O4)c3cnn(C4CCC5(CC4)OCCO5)c3n2)cc1,% of control,[1],91%
same,% of control,[2],100%
same,% of control,[3],100%
CN(C)CCOc1ccc(-c2nc(-c3ccncc3)c(-c3ccc4c(c3)CC/C4=N\O)[nH]2)cc1,% of control,[4],81%
C=CC(=O)Nc1cc(-n2c(=O)ccc3cnc4ccc(-c5ccc(NS(C)(=O)=O)cc5)cc4c32)ccc1C,% of control,[5]; at 1 µM,100%
same,% of control,[5]; at 10 µM,100%
same,% of control,[6]; at 1 µM,100%
same,% of control,[6]; at 10 µM,100%
same,% of control,[7]; at 1 µM,100%
same,% of control,[7]; at 10 µM,73%
same,% of control,[8]; at 1 µM,63%
same,% of control,[8]; at 10 µM,77%
same,% of control,[9]; at 1 µM,100%
same,% of control,[9]; at 10 µM,76%
same,% of control,[10]; at 1 µM,100%
same,% of control,[10]; at 10 µM,100%
same,% of control,[11]; at 1 µM,90%
same,% of control,[11]; at 10 µM,86%
same,% of control,[12]; at 1 µM,100%
same,% of control,[12]; at 10 µM,100%
same,% of control,[13]; at 1 µM,100%
same,% of control,[13]; at 10 µM,100%
same,% of control,[14],57%
COc1cc(N(C)c2ccnc3ccc(C(F)(F)F)cc23)cc(OC)c1OC,% binding,[15],74%
CCC(=O)N1CCN(c2ccc(-n3c(=O)ccc4cnc5ccc(-c6cnc7ccccc7c6)cc5c43)cc2C(F)(F)F)CC1,% of control,[16],100%
same,% of control,[17],24%
O[C@H]1CC[C@H](Nc2ncc3nc(Nc4c(F)cc(F)cc4F)n([C@H]4CCOC4)c3n2)CC1,% of control,[18],100%
